Source: patent US4127687A, “Prevention of fouling of marine structures such as boat hulls” (Rohm and Haas Company, priority 1976, dated 1978)
Converted amounts (≈) assume the structure as drawn. “And” between values parts separate entries of the source, which are not always exact repeats. Equal entries are not always repeated.

Assays:
weed [1] = assay: Paint panel / plaque tests against weed (Table 2); type: in vivo, grass-like algal growth common in sea water; parameters: key: high performance; medium performance; low performance; poor or unacceptable performance; details: April to November, 1975
Excerpt: (3) PAINT FORMULATION AND TEST PANEL OR PLAQUE TESTS
In order to evaluate the compound under practical conditions, weighed quantities of promising compounds are ground in standard volumes of a selected range of paint media and brushed out on plaques for marine immersion.
The anti-fouling paint formulations used is exemplified by the following: […]
The most preferred specific compounds were utilized in paints including vinyl chloride-vinyl acetate copolymers, chlorinated rubber, acrylic emulsions, and conventional paints with or without rosin to contain 20% by weight of biocide in the wet film and in some cases (Example 144 and Example 145) with concentrations of 5, 10, and 15% based on the wet film. Each of the compounds is also described in the membrane tests noted above. The paints were applied at normal thicknesses to plaques or panels of 10 centimeters by 10 centimeters which were immersed in various positions as described for the raft noted above. The compounds and results, as against weed, in the season April to November, 1975, are as follows: […]

weed [2] = assay: Membrane Diffusion Raft Trials, weed control; type: in vivo, grass-like algal growth common in sea water; details: membrane test, average 15 to 16 weeks of immersion
Excerpt: (§1) 1). FIELD TESTS: - Membrane Diffusion Raft Trials
(§2) A specially constructed raft provides three types
(§3) a). Waterline Well illuminated, aerated
(§4) b). Flats Poorly illuminated deeper
(§5) A known quantity of the test compound is placed into a cylindrical plastic container whose open end is then covered with a membrane of known porosity; the complete unit is attached to the appropriate raft panel so that the poison can freely diffuse into the free water layer around it. Regular inspections, recording time and quantity of settlement, allow a life history of each membrane trial to be constructed. Each raft panel contains 35 compounds to be evaluated together with 4 standard poisons and 1 non-toxic membrane for control.
(§6) The behavior on the raft can thus be compared with that of the standard poisons and the non-toxic control. At normal loading a membrane over the standard poisons would be free from macro-fouling after six months immersion. Compounds showing selective effects against restricted groups of fouling organisms also show up by membrane testing.
(§7) After the completion of membrane tests the contents of all containers are checked visually for poison loss. An empty container indicates an unacceptably high solubility for long term effectiveness; where the poison loss is low the compound is tested in one of two ways depending on its performance against fouling.
(§8) In the membrane tests, the results of approximately 140 compounds evaluated appear in Table 1. The symbols "0" means no detactable effect, the symbol "+" indicates the compound is active against the given fouling organism, and the symbol "++" means that the compound appears to be effective over at least about a four month period for essentially preventing fouling activity by the given organism. In the Table, "weed" designates a grass-like algal growth common in sea water.
(§9) Membrane Test results are of an average 15 to 16 weeks of immersion,
(§10) ^a 0 = none, + = some, + + = effective.

barnacle = assay: Membrane Diffusion Raft Trials, barnacle control; type: in vivo, barnacles; details: membrane test, average 15 to 16 weeks of immersion
Excerpt: as §1, §2, §3, §4, §5, §6, §7, §8, §9, §10
^f The 1975 Spring settlement of barnacles was very meager and the […]

[3] = Amount of toxicant remaining in the test container after membrane diffusion raft tests; type: physicochemical; parameters: key: 0: empty or trace; +: some; + +: ample; details: after completion of membrane diffusion raft tests
Excerpt: as §5, §7
^b Amount of toxicants remaining in the test container after the
completion of the membrane diffusion raft tests: 0 = empty or trace, + =

Enteromorpha spores = assay: Laboratory toxicity test (Lab Bioassay) with Enteromorpha spores; type: in vivo; details: using Enteromorpha spores
Excerpt: Standard laboratory toxicity tests use Enteromorpha spores (zoospores or gametes) but Ectocarpus spores and barnacle nauplii may also be used. During the spore tests additional information on the control of bacterial and diatom slimes becomes available since these organisms are unavoidably introduced with the spore inoculum.
More detailed laboratory toxicity tests on promising compounds determine LD50 values as percentage saturated solution.
^c Using Enteromorpha spores.

[4] = Water solubility by UV spectrophotometric method; type: physicochemical; details: for solubility: water, saturated solution, Table 1, read-out: Solubility by UV method
Experimental: The water solubilities of several isothiazolones were determined by UV spectrophotometric measurements of saturated aqueous solution of each compound in comparison with measurement of solutions of carefully prepared known concentration as outlined in the following example.
DETERMINATION OF SOLUBILITY OF 5-CHLORO-2-(4-FLUOROPHENYL)-4-METHYL-3-ISOTHIAZOLONE OF EXAMPLE 115
A sample of 5-chloro-2-(4-fluorophenyl)-4-methyl-3-isothiazolone (0.0406 g., 1.67 × 10^-4 mole) was dissolved in 50 ml. of methanol. A 5 ml. aliquot of the solution was diluted to 1000 ml. with deionized water, providing a solution of 1.67 × 10^-5 moles/liter concentration. An ultraviolet spectrum of this solution was run using a 10 cm. cell. The absorbance (As) at the wave length of maximum absorption (279 nm.) was 1.208. The molar absorptivity, AM, was calculated from the relationship
where b and c are path length or cell thickness and concentration respectively. Thus, AM was [formula]
Another sample of the compound (0.3-0.5 g.) was stirred vigorously in 40 ml. of deionized water for approximately 72 hrs. to give a saturated solution. The mixture was filtered through very fine filter paper (Whatman No. 50) to remove all suspended solid. Small portions of the filtrate were diluted with water by various factors until an approximately mid-scale absorbance was obtained upon running an ultraviolet spectrum. Such an absorbance was obtained at a dilution of 10. The absorbance was 0.975 in a 10 cm. cell. Using the value for AM obtained earlier, in the equation

## O=c1c(Cl)c(Cl)sn1Cc1ccccc1 [Example 148]
Weed [1]
  Effectiveness in paint CONV (conventional anti-fouling formulation): p
  Effectiveness in paint CR (chlorinated rubber): h
  Effectiveness in paint CR/R (chlorinated rubber/rosin): h
  Effectiveness in paint EM (acrylic emulsion): p
  Effectiveness in paint V (polyvinyl chloride-acetate): h
  Effectiveness in paint V/R (vinyl/rosin): h

## Cc1ccccc1-n1sc(Cl)c(C)c1=O [Example 118]
Weed [2]
  Weed Control: + +
barnacle
  Barnacle Control: 0
[3]
  Contents at the end of test (amount of toxicants remaining in the test container): +
Enteromorpha spores
  Lab Bioassay LD50: 0.15 percentage saturated solution

## O=c1ccsn1Cc1ccccc1 [Example 10]
Weed [2]
  Weed Control: 0
barnacle
  Barnacle Control: 0
[3]
  Contents at the end of test (amount of toxicants remaining in the test container): 0
[4]
  solubility: 3000 µg/mL (≈ 15700 µM)

## Cc1c(Cl)sn(Cc2ccccc2)c1=O [Example 109]
Weed [2]
  Weed Control: + +
barnacle
  Barnacle Control: +
[3]
  Contents at the end of test (amount of toxicants remaining in the test container): 0
[4]
  solubility: 100 µg/mL (≈ 417 µM)

## O=c1c(Cl)c(Cl)sn1CCc1ccccc1 [Example 146]
Weed [1]
  Effectiveness in paint CONV (conventional anti-fouling formulation): h
  Effectiveness in paint CR (chlorinated rubber): h
  Effectiveness in paint CR/R (chlorinated rubber/rosin): h
  Effectiveness in paint EM (acrylic emulsion): p
  Effectiveness in paint V (polyvinyl chloride-acetate): h
  Effectiveness in paint V/R (vinyl/rosin): h

## CCCCCCCCn1sc(Cl)c(C)c1=O [Example 101]
Weed [2]
  Weed Control: + +
barnacle
  Barnacle Control: + +
[3]
  Contents at the end of test (amount of toxicants remaining in the test container): 0
[4]
  solubility: 38 µg/mL (≈ 145 µM)

## CCCCCCn1sc(Cl)cc1=O [Example 15]
Weed [2]
  Weed Control: 0
barnacle
  Barnacle Control: 0
[3]
  Contents at the end of test (amount of toxicants remaining in the test container): 0
[4]
  solubility: 900 µg/mL (≈ 4100 µM)

## CCCCCCCCn1sc(Br)c(Br)c1=O [Example 95]
Weed [2]
  Weed Control: + +
barnacle
  Barnacle Control: 0
[3]
  Contents at the end of test (amount of toxicants remaining in the test container): 0
[4]
  solubility: 1.7 µg/mL (≈ 4.58 µM)

## CCCCCCCCCCCCn1sc(Cl)c(Cl)c1=O [Example 64]
Weed [2]
  Weed Control: 0
barnacle
  Barnacle Control: +
[3]
  Contents at the end of test (amount of toxicants remaining in the test container): + +
[4]
  solubility: 0.1 to 3 µg/mL (≈ 0.296 to 8.87 µM)

## CCCCc1ccc(-n2sc(Cl)c(C)c2=O)cc1 [Example 121]
Weed [2]
  Weed Control: + +
barnacle
  Barnacle Control: + +
Enteromorpha spores
  Lab Bioassay LD50: 0.13 percentage saturated solution

## CCCCCCCCCCn1scc(Br)c1=O [Example 49]
Weed [2]
  Weed Control: + +
barnacle
  Barnacle Control: 0
[3]
  Contents at the end of test (amount of toxicants remaining in the test container): +
Enteromorpha spores
  Lab Bioassay LD50: 0.01 percentage saturated solution

## CCCCCCCCCCCCCCCCn1sc(Cl)c(Cl)c1=O [Example 66]
Weed [2]
  Weed Control: 0
barnacle
  Barnacle Control: 0
[3]
  Contents at the end of test (amount of toxicants remaining in the test container): + +
[4]
  solubility: 0.5 µg/mL (≈ 1.27 µM)

## O=c1cc(Cl)sn1-c1ccccc1 [Example 33]
Weed [2]
  Weed Control: + +
barnacle
  Barnacle Control: +
[3]
  Contents at the end of test (amount of toxicants remaining in the test container): +
[4]
  solubility: 180 µg/mL (≈ 850 µM)

## O=c1cc(Cl)sn1CCc1ccccc1 [Example 29]
Weed [2]
  Weed Control: + +
barnacle
  Barnacle Control: 0
[3]
  Contents at the end of test (amount of toxicants remaining in the test container): 0
[4]
  solubility: 240 µg/mL (≈ 1000 µM)

## O=c1cc(Cl)sn1C1CCCCC1 [Example 27]
Weed [2]
  Weed Control: 0
barnacle
  Barnacle Control: +
[3]
  Contents at the end of test (amount of toxicants remaining in the test container): +
[4]
  solubility: 217 µg/mL (≈ 997 µM)

## O=c1c(Cl)c(Cl)sn1-c1ccccc1 [Example 150]
Weed [1]
  Effectiveness in paint CONV (conventional anti-fouling formulation): p
  Effectiveness in paint CR (chlorinated rubber): p
  Effectiveness in paint CR/R (chlorinated rubber/rosin): h
  Effectiveness in paint EM (acrylic emulsion): p
  Effectiveness in paint V (polyvinyl chloride-acetate): m
  Effectiveness in paint V/R (vinyl/rosin): h

## O=c1c(Cl)c(Cl)sn1Cc1ccc(Cl)cc1 [Example 149]
Weed [1]
  Effectiveness in paint CONV (conventional anti-fouling formulation): h
  Effectiveness in paint CR/R (chlorinated rubber/rosin): h
  Effectiveness in paint EM (acrylic emulsion): h
  Effectiveness in paint V (polyvinyl chloride-acetate): l
  Effectiveness in paint V/R (vinyl/rosin): h

## Cc1c(Cl)sn(-c2ccccc2)c1=O [Example 111]
Weed [2]
  Weed Control: + +
barnacle
  Barnacle Control: +
[3]
  Contents at the end of test (amount of toxicants remaining in the test container): +
[4]
  solubility: 200 µg/mL (≈ 886 µM)

## CCCCCCn1sc(Cl)c(Br)c1=O [Example 87]
Weed [2]
  Weed Control: + +
barnacle
  Barnacle Control: + +
[3]
  Contents at the end of test (amount of toxicants remaining in the test container): 0
[4]
  solubility: 85 µg/mL (≈ 285 µM)

## CCCCn1sc(Cl)c(Br)c1=O [Example 86]
Weed [2]
  Weed Control: + +
barnacle
  Barnacle Control: 0
[3]
  Contents at the end of test (amount of toxicants remaining in the test container): 0
[4]
  solubility: 1170 µg/mL (≈ 4320 µM)

## CCCCCCCCn1scc(Br)c1=O [Example 48]
Weed [2]
  Weed Control: 0
barnacle
  Barnacle Control: 0
[3]
  Contents at the end of test (amount of toxicants remaining in the test container): +
[4]
  solubility: 45 µg/mL (≈ 154 µM)

## Cc1c(Cl)sn(Cc2ccc(Cl)cc2)c1=O [Example 110]
Weed [2]
  Weed Control: +
barnacle
  Barnacle Control: +
[3]
  Contents at the end of test (amount of toxicants remaining in the test container): + +
[4]
  solubility: 34 µg/mL (≈ 124 µM)

## Cc1c(Cl)sn(C2CCCCC2)c1=O [Example 107]
Weed [2]
  Weed Control: 0
barnacle
  Barnacle Control: +
[3]
  Contents at the end of test (amount of toxicants remaining in the test container): +
[4]
  solubility: 350 µg/mL (≈ 1510 µM)

## CCCCCCCCCCCCCCn1sc(Cl)c(Cl)c1=O [Example 65]
Weed [2]
  Weed Control: 0
barnacle
  Barnacle Control: 0
[3]
  Contents at the end of test (amount of toxicants remaining in the test container): + +
[4]
  solubility: 0.9 µg/mL (≈ 2.46 µM)

## Cc1c(Cl)sn(-c2ccc(Cl)c(Cl)c2)c1=O [Example 134]
Weed [2]
  Weed Control: 0
barnacle
  Barnacle Control: 0
[3]
  Contents at the end of test (amount of toxicants remaining in the test container): + +
[4]
  solubility: 3.5 µg/mL (≈ 11.9 µM)

## Cc1c(Cl)sn(-c2ccc(F)cc2)c1=O [Example 115, 5-chloro-2-(4-fluorophenyl)-4-methyl-3-isothiazolone]
[4]; deionized water, stirred approximately 72 hrs., UV, read-out: concentration of the saturated solution
  solubility thermodynamic at 72 h: 135 µM and 32.8 µg/mL
[4]; deionized water, stirred approximately 72 hrs., UV, read-out: solubility of this compound
  solubility at 72 h: 33 µg/mL (≈ 135 µM)
[4]
  solubility: 35 µg/mL (≈ 144 µM)

## O=c1ccsn1-c1ccc(Cl)cc1 [Example 12]
Weed [2]
  Weed Control: +
barnacle
  Barnacle Control: +
[3]
  Contents at the end of test (amount of toxicants remaining in the test container): +
[4]
  solubility: 180 µg/mL (≈ 850 µM)

## Cc1c(Cl)sn(-c2ccc(Cl)cc2)c1=O [Example 147]
Weed [1]
  Effectiveness in paint CONV (conventional anti-fouling formulation): p
  Effectiveness in paint CR (chlorinated rubber): h
  Effectiveness in paint CR/R (chlorinated rubber/rosin): h
  Effectiveness in paint EM (acrylic emulsion): m
  Effectiveness in paint V (polyvinyl chloride-acetate): h
  Effectiveness in paint V/R (vinyl/rosin): h
